Data taken from patent US7737250B2, “Peptides for treating axonal damage, inhibition of neurotransmitter release and pain transmission, and blocking calcium influx in neurons” (Mount Sinai School of Medicine of New York University, priority 2003, dated 2010).

Legend:
[1] = tested on: cell-surface myc-L1-CAM on ND-7 cells; assay: L1-CAM diffusion behavior assay: movement of 9E10-coated beads bound to myc-L1-CAM (video microscopy, laser tweezers); format: cell-based, rat
Excerpt: Video microscopy, laser tweezers, and data analysis: The 9E10-coated latex beads were then placed and held with an optical gradient laser trap on the surface of transfected cells at a distance of between 0.5 and 1 μm from the leading edge for 2 seconds. The laser trap consisted of a Titanium Sapphire (Coherent; model 890) solid state laser pumped by a 5 W frequency-doubled Neodymnium Vanadate laser (Verdi; Coherent) and tuned to 800 nm. This wavelength was previously determined to generate the fewest heating artifacts in live cells (Svoboda and Block. Biomol Struct 1994;23:-247-285 and Choquet et al. Cell 1997;88:39-48). Laser power at the output of the Titanium Sapphire laser was 40 mW, and prepared beads were placed and held on the cell surface for less than 3 sec to further reduce the possibility of heating artifacts. Laser light was introduced through the television port of the Axiovert microscope.
Video images of bead movement were collected using a newvicon camera (Dage MTI; VE-1000N) and background subtraction and contrast enhancement were carried using a Hamamatsu Argus 20 image processor. Raw data were recorded to sVHS video tape for subsequent analysis. Video recordings were subsequently digitized onto an Intel processor-based computer running the Isee imaging software (Isee Imaging) running under Red Hat Linux 7.1. Quantification of bead movement was carried out in Isee. Diffusional analysis was carried out using a custom spreadsheet in Excel (Microsoft). This spreadsheet carries out 4 operations: first, it scales the data from pixel measurements to nm using the appropriate scale factor (determined by the magnification used to observe bead movement); second, it subtracts the first point from all of the data, to set the origin at 0,0 (x,y coordinates); third, it rotates (in two dimensional space) the data around the origin so that the orientation of the cell is the same from trial to trial (here, the data was set so that the cells all face to the left); and fourth, the spreadsheet calculates the mean square displacement (MSD) data which are used to calculate diffusion coefficients and bead velocity. Individual traces were scored blind for classes of behavior. Statistical analysis of percentages of trials was carried out using chi-squared analysis or a Fisher's exact probability test.
MSD values were calculated as previously described (see Qian et al, 1991; Biophysical Journal 60 p910). For these calculations, the squared displacement (a^2+b^2; where a=xn+t−xn, b=a=yn+t−yn for any two points separated by time t) of the bead was calculated between two points in the data set. The mean of the squared displacements was calculated for each time interval t=1 to m, where m is the time interval that equals 10% of the length of the data set. The mean displacement was plotted with respect to time giving a curve with a linear or quadratic shape, depending on the behavior of the bead. Diffusion rates and velocity were calculated by fitting the curve with the equation MSD=4Dt+v^2t^2, where D is the diffusion coefficient, v is the velocity and t is time. D and v were calculated for each bead independently and presented as averages or as individual values, as described in each case.
Cell culture and transfection: ND-7 cells (rat neuroblastoma/DRG hybrid cells) were plated and transfected with pMyc-L1-CAM, pMyc-L1-CAM-YF, pMyc-L1-CAM-YH, or pMyc-L1-CAM-STOP expression constructs as described in Example 3, supra.
In some instances, ND-7 cells transfected with pMyc-L1-CAM were treated with the cytoskeletal inhibitor cytochalasin D (2 μM; Sigma) or nocadazole (1 μM; Sigma). For these experiments treatment with DMSO (0.01%) vehicle alone served as the negative control.
In some instances, ND-7 cells transfected with pMyc-L1-CAM were treated with neural growth factor (NGF) to stimulate phosphorylation of tyrosine 1229 (Y1229) of the L1-CAM cytoplasmic domain, and thereby inhibit ankyrin binding. […]

Cav2.2 channels = assay: Calcium channel distribution by confocal indirect immunofluorescence in DRG neurons; format: cell-based, chicken; conditions: DRG neurons pretreated with peptide 1.4 μg/ml, 30 min
Experimental: Antibodies: Primary antibody: rabbit anti-pan α1 binds Ca channel (1:200 dilution, [1.5 μg/ml) [Alomone Labs; Jerusalem, Israel]. Secondary antibodies: (1:200 dilution, 10 μg/ml): tetramenthylrhodamine conjugated goat anti-rabbit IgG (H+L) [Molecular Probes; Eugene, OR]
Dorsal root ganglia were dissected from 11 to 12 day old embryos, incubated for 30 min in saline containing nominal Ca 2^+ and Mg 2^+, and 0.05% collagenase (type A, Boehringer Mannheim). Ganglia were dissociated mechanically into single cells by trituration in culture medium containing Dulbecco's modified Eagle's medium supplemented with 10% horse serum, 5% chicken embryo extract, penicillin, streptomycin, glutamine, and nerve growth factor. Cells were plated at a density of ˜50,000 cells/collagen-coated 35 mm tissue culture dish and studied between 1 and 3 days in vitro.
Immunohistochemistry: Cultures grown on poly-L-lysine cover glass slips were exposed to saline or 100 mM NE (norepinephrine), fixed and permeabilized in methanol at −20° C. for 15-minutes or 20 second (for residual experiment) followed by 3×5-min washes in PHEM Buffer [60 mM PIPES, 25 mM HEPES, 10 mM EGTA, 2 mM MgCl2, pH 6.9]. Cells were alternatively fixed with 4% paraformaldehyde in PHEM buffer, pH 6.9 for 20-min, washed 3×3-min with PHEM buffer and permeabilization with 0.1% Triton X-100/PHEM buffer for 3-min. Blocking was performed using 5% BSA in PHEM Buffer for 1-h at 4 C. Following overnight incubation with primary antibody in 1% BSA and 1% normal goat sera in PHEM Buffer at 4 C. After washes with PHEM Buffer, cover slips were incubated with fluorophore-conjugated secondary antibodies in 1% BSA PHEM Buffer for 1.5 hours at room temperature in the dark. […]
Images of fixed cells were obtained with a pinhole setting of 0.95 using a UV 100× 1.4NA oil Leica objective lens and an optical zoom between 1.4 and 2× at slow acquisition speed with 4× frame averaging accumulation. The number of sections was calculated by the Leica TCS software based on acquisition of sections at 240 nm intervals in the Z-plane. […]

[2] = tested on: secretion of Substance P from DRG neurons; assay: Substance P secretion, single-cell immunoblot assay; format: cell-based, chick; conditions: DRG neurons pre-incubated with peptide 1.4 μg/ml for 1 hour
Experimental: Secretion Assay: Secretion of substance P was analyzed using the single-cell immunoblot method adapted from Huang and Neher (Huang, L. Y., Neher, E. (1996) Neuron. 17, 135-45.). Briefly, polyvinylidene difluoride transfer membranes (Immobilon P brand from Millipore) were cut to […] and placed in a 6-well plate. Membranes were pre-wetted with methanol for 20 s, rinsed with distilled water and allowed to equilibrate in test solution for >1 hr. In parallel, DRG cells plated were incubated with media containing AP-YF or AP-Scr (1.4 μg/ml) for 1 hour. This media was removed, and replaced with 70 μl of test solution. The membranes were then placed on top of the cells, and allowed to incubate at 37° C. in a humidified CO2 incubator for 30 min. The membranes were then carefully removed from the cells and allowed to dry completely and fixed with powdered paraformaldehyde at 80° C. for 1 hr. Fixed membranes were rinsed in PBS (1 mM KH2PO4, 10 mM Na2HPO4, 137 mM NaCl, 2.7 mM KCl) containing 1% Triton X-100 (PBS-T) to remove excess paraformaldehyde, and blocked with PBS-T containing 3% fetal bovine serum (FBS) for 30 min at room temperature. The membranes were incubated with anti-substance P antibody (Santa Cruz) at 1:200 dilution in PBS-T with 1% FBS overnight in 37° C. incubator. The next day the membranes were developed with a peroxidase/diamninobenzidine (DAB) reaction using the ABC staining kit from Santa Cruz Biotechnology. Images were taken using a CCD camera, and analyzed using Photoshop and NIH image software. Data were plotted by assigning an upper and lower limit of gray values and plotting % of cells at a range within those limits. By plotting graphs as % of cells in a dynamic range, multiple experimental runs were pooled.

[3] = tested on: complex containing L1-CAM, ankyrin B and Cav2.2; assay: Co-precipitation of L1-CAM and ankyrin B with Cav2.2 channel protein from DRG neurons; format: cell-based; conditions: chick DRG neurons treated with saline; peptide pretreatment
Experimental: Co-precipitation: 1×10^6 DRG cells were used for each condition. DRG neurons were exposed to control solution containing 100 μM bicuculline or 100 μM GABA in the presence of 100 μM bicuculline. After agonist treatment, DRG neurons were lysed with ice-cold buffer (phosphate buffered saline, pH 7.4, containing 250 μM sodium pervanadate, 1% (v/v) NP-40, 1 mM Pefabloc, 1 mM EDTA, 1 mM EGTA, 10 μg/ml pepstatin, 10 μg/ml leupeptin, and 100 μg/ml soybean trypsin inhibitor, 100 μg/ml calpain I and 100 μg/ml calpain II inhibitors. The α1subunit of the Cav2.2 channel was immunoprecipitated as previously described (Schiff, M. L et al., (2000). Nature 408:723-726.).
Cell culture, transmitter application: Cell culture and transmitter application, were performed as described in Example 10, supra. For experiments determining the effect of activation of GABAB receptors upon L1-CAM-ankyrin-calcium channel interaction in DRG neurons, calcium channels were precipitated from DRG neurons treated with saline or baclofen for 20 seconds using anti-pan alpha 1 antibody and then immunoblotted for ankyrin (anti-ankyrin B antibody) or L1-CAM (8D9 anti-NgCAM).

[4] = ND-7 cells expressing myc-L1-CAM, 1.4 μg/ml peptide for 30 minutes

Row | Sequence | percentage of beads showing stationary behavior [1, 4] | percentage of trials undergoing retrograde movement [1, 4] | Cav2.2 channel distribution (plasma membrane vs cytoplasm) (Cav2.2 channels) | high K^+-induced secretion of Substance P [2] | co-precipitation of L1-CAM and ankyrin B with Cav2.2 channel protein [3] | bead velocity compared to untreated controls ([1]; 1.4 μg/ml peptide)
1 | RQIKIWFQNRRMKWKKQFNEDGSFIGQF [AP-YF] | reduced | increase | induces removal of Cav2.2 channels | blocks high K^+-induced secretion | abolished the interaction | –
2 | RQIKIWFQNRRMKWKKFQGIFSGDENFQ [AP-Scramble] | – | – | no effect | did not affect secretion significantly | not | no significant effect
